Measured values reported in patent US20090176743A1 (priority 2005, published 2009).
Entries after “also recorded” stand apart in the source; their conditions may differ.

Columns and labels:
ICP0^− virus (n212) = assay type: cell-based, HSV-1; conditions: for effect of combined arginine and methionine deprivation on plating efficiency of ICP0- virus: three days in media containing all combinations of arginine, methionine and glutamine (FIG. 15); for effect of deprivation/refeeding on plating efficiency of ICP0- virus: 42 h in medium lacking the amino acid, normal medium 9 h, then n212 (FIG. 9)
Procedure: Like isoleucine deprivation, serum starvation is a method commonly used to synchronize cells to G1 phase of the cell cycle. We then replaced the media with normal growth medium, infected cells with wild type (KOS) or ICP0^− virus (n212), and analyzed cells for cellular DNA content at 3-h intervals (FIG. 7).
We infected the monolayers with an ICP0^− virus (n212) 9 h after the addition of normal medium (FIG. 8).
Media were replaced with normal growth medium, and after a 9-h incubation, monolayers were infected with ICP0^− (n212).
Cells were then infected with wild type or ICPO-virus to determine plating efficiency as described herein. […] In order to determine the role of isoleucine in these experiments, monolayers of cells were incubated for 42 hours in normal medium (Gln+ Ile+) or media lacking Ile, Gln, or both. Cells were then infected with wild type or ICP0^− virus to determine plating efficiency as described herein.
For these experiments, monolayers were incubated for 1-5 days in the absence of each of the 15 amino acids present in DMEM. Cells were then infected with wild type or ICPO-virus to determine plating efficiency as described herein.
Cells were then infected with wild type or ICPO-virus to determine plating efficiency as described herein.
A. Ile deprivation and serum starvation. DMEM was prepared by dissolving all components individually, except Ile and Gln, in water according to Invitrogen's formulation for DMEM (catalog #11965) with 3 substitutions: 200 mg/l calcium chloride (anhydrous) for 264.92 mg/l calcium chloride dihydrate, 48 mg/l L-cystine for 63 mg/l L-cystine dihydrochloride, and 72 mg/l L-tyrosine for 104 mg/l L-tyrosine disodium salt, dihydrate. Medium was sterilized by passage through a 0.22 μm filter. Ile and Gln were added as needed, not more than two days prior to use, at final concentrations of 0.802 or 2 mM, respectively.
Sixty-mm petri plates were seeded with 5×10^5 cells/plate and incubated 24 h at 37° C. For Ile deprivation experiments, medium was removed and monolayers were washed with warm Hanks' Balanced Salt Solution (HBSS) (37° C.) and overlaid with 4 ml warm Ile-free DMEM with 10% dialyzed FBS and 0 or 2 mM Gln. For serum starvation experiments, medium was removed and monolayers were washed with warm HBSS and overlaid with 4 ml warm serum-free DMEM with 0.802 mM Ile and 0 or 2 mM Gln. Monolayers in Ile- or serum-free media were incubated 42 h at 37° C. Media were replaced with warm DMEM containing 10% non-dialyzed FBS, 0.802 Ile, and 2 mM Gln. At 3-h intervals monolayers were infected with wild-type or ICP0-viruses to determine plating efficiency or analyzed for cellular DNA content by flow cytometry as described below.
Infections to determine plating efficiency. Vero cell monolayers in 35-, 60-, and 100-mm plates were infected with volumes of 200 μl, 400 μl, or 2 ml/plate, respectively, with 5, 10, 20, 40, or 100 PFU/plate. For all experiments except Ile deprivation and serum starvation, titers were determined on 24-h-old Vero cell monolayers that had been seeded at a concentration of 1.5×10^5 Vero cells/35-mm plate and incubated at 37° C. […] Plates were incubated at 37° C. and shaken every 15 minutes for 1 h. Two, 4, or 10 ml of DMEM containing 5% FBS and 0.5% methyl cellulose was added to 35-, 60-, and 100-mm plates, respectively, and monolayers were incubated 3-5 days at 37° C. to allow plaques to form. Medium was aspirated, cells were stained with crystal violet, and plaques were counted.

[1] = test system: wild-type virus latent in mouse trigeminal ganglia; assay: Mouse ocular/trigeminal ganglia (TG) cell culture model of reactivation from latency; assay type: cell-based, HSV-1
Procedure: (For details on the model, see, for example, Leib et al., J. Virol. 63:759-768 (1989), Halford et al., J. Virol. 74:5957-5967. (2000), and Halford et al., J. Virol. 75:3240-3249 (2001)). For this experiment, mice were infected with the wild-type virus and 30 days later the trigeminal ganglia (TG) were removed and incubated in 3 24-well plates in medium containing acyclovir (ACV). As indicated below the x-axis of FIG. 16, on day 7 the acyclovir was removed. On day 11, 1 24-well plate was treated by: washing once with HBSS and replacing with Gln-free medium supplemented with 10% dialyzed FBS (red); washing once with HBSS and replacing with Gln-containing medium supplemented with 10% dialyzed FBS (green); or 3-hour incubation at 43° C. followed by replacement of medium with fresh medium (blue). On day 13, Gln-free and Gln-containing medium with dialyzed FBS was replaced with medium containing Gln and 10% normal FBS. On day 16, the 2 plates not previously heat shocked were incubated for 3 hours at 43° C. followed by replacement of medium with fresh medium. Starting on day 10, 10% of the volume of each well was transferred daily to 1 well of a 96-well plate previously seeded with Vero cells. After incubation at 37° C. for 7 days, monolayers of Vero cells in the 96-well plates were examined by light microscopy for cytopathic effect. […]

HSV-1 (KOS strain) = assay: Heat-stress reactivation of latent HSV in mice treated with glutamine (Example 5); assay type: in vivo, mouse; conditions: intraperitoneally or orally, heat stress 43° C. water 10 minutes
Procedure: The strain of HSV and the method of propagation can be as described in Example 1.
The mice can be infected by, e.g., the topical ocular route, and the establishment of a corneal infection can be documented by slit lamp examination and ocular swabs on day 3 after infection. Only animals which are successfully infected are retained for use in these experiments. Thirty days after infection, groups of latently infected and uninfected mice are treated with the glutamine composition. […] The mice are treated one day before heat stress and the day of the heat stress.
The glutamine composition can be given intraperitoneally in some groups of mice and orally in others. This treatment can be continued on the day the animals are heat stressed by immersion into 43° C. water for 10 minutes. Twenty-four hours after the hyperthermic stress, the eyes are swabbed to culture any infectious virus, and the mice killed to collect the trigeminal ganglia. Ocular swabs are incubated in culture medium which is then transferred to Vero cell monolayers in 96 well culture plates. Units of infectious herpesvirus are recorded as units of cytopathic effect over a period of seven days. […] The units of cytopathic effect are recorded over a seven day incubation period. […]

ICP0 promoter-CAT [2] = assay: Promoter-CAT expression in Vero cells after Ile deprivation/refeeding; assay type: cell-based, HSV-1; conditions: 0-6 hours post-release
Procedure: (§1) Vero cells and NB41A3 cells (mouse neuroblastoma cells) were treated by Ile deprivation/refeeding as in the previous experiment. The expression of viral gene promoters was then analyzed. Promoter-chloramphenicol acetyltransferase (CAT) expression from plasmids was measured following transfection of Vero cells treated by Ile-deprivation/refeeding. ICP0 and ICP4 promoter-CAT expression increased 6- or 4-fold, respectively, at early times (0-6 hours post-release) then decreased through 10 hours post-release. In cells from the mouse neuroblastoma cell line, NB41A3, ICP0, ICP4, and ICP22/47 promoter-CAT expression was increased 6-, 10-, or 5-fold, respectively.

ICP4 promoter-CAT [3] = assay: as above; assay type: cell-based, HSV-1; conditions: 0-6 hours post-release
Procedure: as §1

ICP0 promoter-CAT [4] = assay: Promoter-CAT expression in NB41A3 cells after Ile deprivation/refeeding; assay type: cell-based, HSV-1; conditions: NB41A3 mouse neuroblastoma cells
Procedure: as §1

ICP22/47 promoter-CAT = assay: as above; assay type: cell-based, HSV-1; conditions: NB41A3 mouse neuroblastoma cells
Procedure: as §1

ICP4 promoter-CAT [5] = assay: as above; assay type: cell-based, HSV-1; conditions: NB41A3 mouse neuroblastoma cells
Procedure: as §1

ICP0^− (7134) virus = conditions: Ile-free medium 42 hours, refeeding; first 8 h post-release; cited from earlier work
wt (KOS) virus = conditions: Ile-free medium 42 hours, refeeding; all time points; cited from earlier work
HSV = conditions: presence of L-lysine; cited from earlier work

**Q.** For `N=C(N)NCCC[C@H](N)C(=O)O` [arginine], which “effect of combined arginine and methionine deprivation on plating efficiency of ICP0- virus” value (ICP0^− virus (n212)) is on record?
**A.** Its value is “synergistic effect”.

**Q.** Which results are given for `NC(=O)CC[C@H](N)C(=O)O` [glutamine]?
**A.** reactivation of wild-type virus from latency (wells positive for cytopathic effect) ([1]; TG incubated in 0 mM Gln (FIG. 16)): reactivated more rapidly and to the same extent as heat-shocked TG; reactivation of wild-type virus from latency (wells positive for cytopathic effect) ([1]; TG incubated in the presence of 2 mM Gln (FIG. 16)): significantly reduced reactivation; units of infectious herpesvirus on the ocular surface vs untreated heat-stressed animals (HSV-1 (KOS strain)): statistically significantly lower units of infectious herpesvirus

**Q.** Which results are given for `CC[C@H](C)[C@H](N)C(=O)O` [isoleucine]?
**A.** effect of deprivation/refeeding on plating efficiency of ICP0- virus (ICP0^− virus (n212)): little or no effect; increase of ICP0 promoter-CAT expression (ICP0 promoter-CAT [2]): 6 fold; increase of ICP4 promoter-CAT expression (ICP4 promoter-CAT [3]): 4 fold; increase of ICP0 promoter-CAT expression (ICP0 promoter-CAT [4]): 6 fold; increase of ICP22/47 promoter-CAT expression (ICP22/47 promoter-CAT): 5 fold; increase of ICP4 promoter-CAT expression (ICP4 promoter-CAT [5]): 10 fold; increase in number of plaques produced by the ICP0- virus (ICP0^− (7134) virus): 6 fold; number of plaques produced by wild type virus (wt (KOS) virus): same number of plaques at all time points tested

**Q.** For `NCCCC[C@H](N)C(=O)O` [lysine, L-lysine], which “effect of deprivation/refeeding on plating efficiency of ICP0- virus” value (ICP0^− virus (n212)) is on record?
**A.** The value was “slight enhancement; also recorded: slight increase”.

**Q.** And the “enhancement of plating efficiency of ICP0- virus by deprivation/refeeding” value (ICP0^− virus (n212); separate experiment)?
**A.** Its value is 2-3 fold.

**Q.** What about the “replication efficiency of HSV in cell culture” value (HSV) of the same compound?
**A.** Its value is “decrease the replication efficiency”.

**Q.** For `CSCC[C@H](N)C(=O)O` [methionine], which “effect of combined arginine and methionine deprivation on plating efficiency of ICP0- virus” value (ICP0^− virus (n212)) is on record?
**A.** The value was “synergistic effect”.
